These results are taken from PMC6155600, “Design, Synthesis and Cellular Characterization of a Dual Inhibitor of 5-Lipoxygenase and Soluble Epoxide Hydrolase” (Molecules : A Journal of Synthetic Chemistry and Natural …, 2016).

Structures are written as SMILES.

In experiment [1] the target is T1, soluble epoxide hydrolase (sEH) (Homo sapiens, UniProt P34913).
T1 construct: gene EPHX2
T1 sequence (P34913 1-555): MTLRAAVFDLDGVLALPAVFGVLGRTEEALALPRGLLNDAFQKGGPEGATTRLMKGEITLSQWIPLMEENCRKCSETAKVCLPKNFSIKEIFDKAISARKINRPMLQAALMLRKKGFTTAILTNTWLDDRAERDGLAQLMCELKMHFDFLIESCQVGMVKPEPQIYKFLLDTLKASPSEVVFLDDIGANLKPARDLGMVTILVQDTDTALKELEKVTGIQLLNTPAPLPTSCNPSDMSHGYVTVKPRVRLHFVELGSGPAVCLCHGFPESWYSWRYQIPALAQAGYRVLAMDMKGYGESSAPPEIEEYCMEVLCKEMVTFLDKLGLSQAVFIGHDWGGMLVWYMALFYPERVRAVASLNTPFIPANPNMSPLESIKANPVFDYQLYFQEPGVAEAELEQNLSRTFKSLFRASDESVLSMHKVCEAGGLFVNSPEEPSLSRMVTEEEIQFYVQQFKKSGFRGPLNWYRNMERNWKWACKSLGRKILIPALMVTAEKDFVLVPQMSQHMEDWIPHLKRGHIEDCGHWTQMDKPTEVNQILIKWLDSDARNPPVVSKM
The experiment is described as follows: fluorescence-based enzyme activity assay with recombinant human sEH (PHOME substrate). It counts as biochemical.

Experiment [2] addresses T2, 5-lipoxygenase (5-LO) (Homo sapiens, UniProt P09917).
T2 construct: gene ALOX5
T2 sequence (P09917 1-674): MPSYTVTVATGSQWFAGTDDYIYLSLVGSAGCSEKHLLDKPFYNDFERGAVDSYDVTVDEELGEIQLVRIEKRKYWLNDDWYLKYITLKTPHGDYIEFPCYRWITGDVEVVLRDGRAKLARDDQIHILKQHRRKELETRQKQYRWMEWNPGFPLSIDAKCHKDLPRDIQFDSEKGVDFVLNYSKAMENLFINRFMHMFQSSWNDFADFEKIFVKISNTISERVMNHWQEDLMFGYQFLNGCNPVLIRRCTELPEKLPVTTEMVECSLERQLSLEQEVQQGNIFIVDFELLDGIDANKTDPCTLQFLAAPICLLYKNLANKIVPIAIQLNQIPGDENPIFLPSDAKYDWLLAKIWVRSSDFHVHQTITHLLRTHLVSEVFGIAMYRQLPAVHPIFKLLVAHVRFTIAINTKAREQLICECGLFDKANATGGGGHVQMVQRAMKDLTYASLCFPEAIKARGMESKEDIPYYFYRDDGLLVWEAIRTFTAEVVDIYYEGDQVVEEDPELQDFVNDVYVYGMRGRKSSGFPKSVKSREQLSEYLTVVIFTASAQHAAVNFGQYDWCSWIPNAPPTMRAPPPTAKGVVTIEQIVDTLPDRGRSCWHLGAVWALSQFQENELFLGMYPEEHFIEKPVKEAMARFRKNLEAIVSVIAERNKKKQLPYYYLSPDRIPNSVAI
The experiment is described as follows: purified recombinant 5-LO activity assay, arachidonic acid substrate, HPLC product analysis. It counts as biochemical.

`COc1ccc(CN(O)C(N)=O)cc1OCCCNC(=O)Nc1ccc(OC(F)(F)F)cc1` [compound 5, 1-(3-{5-(Hydroxyureido)methyl-2-methoxyphenoxy}propyl)-3-[4-(trifluoromethoxy)phenyl]urea]: the IC50 (usually the concentration at which inhibition is half-maximal) in experiment [1] was 29 nM; in experiment [2] it was 1300 nM.
